Legend:
[1] = molecular target: T1, Horseradish peroxidase (HRP) (Armoracia rusticana, UniProt P00433); test: Reducing substrate specificity assay (HRP-catalysed reduction of PPHP to PPA, HPLC); assay type: biochemical; conditions: for Index = concentration PPA/(concentration PPA+concentration PPHP): 100 microM PPHP, 0.1 M potassium citrate pH 5.5, 0.2 mM Tween-20, 25° C., 6 minutes, triplicate
T1 construct: purchased Sigma Chemical Corporation Type VI
T1 sequence (P00433 31-338 limits assumed): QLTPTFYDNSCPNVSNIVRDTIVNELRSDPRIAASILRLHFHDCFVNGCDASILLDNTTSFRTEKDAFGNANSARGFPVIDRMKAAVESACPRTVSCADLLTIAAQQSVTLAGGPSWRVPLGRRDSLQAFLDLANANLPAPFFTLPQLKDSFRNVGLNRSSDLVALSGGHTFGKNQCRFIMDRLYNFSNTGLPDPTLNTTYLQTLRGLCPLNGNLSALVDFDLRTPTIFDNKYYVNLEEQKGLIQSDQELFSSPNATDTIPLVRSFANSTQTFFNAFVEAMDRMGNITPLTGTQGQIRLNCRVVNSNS
Procedure: Incubations were performed in triplicate with a 25° C. shaker bath in 16×150 mm disposable glass test tubes. 60 nM HRP was incubated at 25° C. in 0.1 M potassium citrate buffer, […] containing 0.2 mM Tween 20, with 100 microM PPHP and 200 microM potential reducing substrate. The index value is defined as, Index=concentration PPA/(concentration PPA+concentration PPHP). Most reducing substrates were prepared daily as 8 mM stocks in either water, methanol, or methanol:water (1:1 v/v). DPBF was dissolved in acetone. Uric acid was dissolved in DMSO. Epinephrine required titration with dilute hydrochloric acid prior to dissolution in methanol. Indoleacetic acid, tryptophan, cysteine, and methionine were titrated with dilute potassium hydroxide prior to dissolution in methanol:water (1:1 v/v).
For the data in Table 1 hereinafter, reducing substrates (50 microliters of 8 mM stocks--see Table 1 for preparation) were transferred into 1.9 ml of 0.1 M potassium citrate buffer, pH 5.5, containing 0.2 mM Tween-20 and allowed to thermally equilibrate for 10 minutes. HRP (24 microl of a 5 microM stock) was added to each trial and preincubated for three minutes prior to the addition of PPHP (25 microl of 8 mM stock in methanol). Incubations were stopped at 6 minutes by pouring mixtures onto Baker SPE System columns (3 ml octyldecylsilyl, from J. T. Baker & Co.). The columns were prepared prior to use by passing 3×3 ml aliquots of water through the columns with the Baker SPE vacuum system. At the stop time, an individual trial was poured onto the column and aspirated to near dryness. Each individual trial was set aside until the reminder of the trials were treated in the same manner. After all incubation trials were partitioned onto the SPE columns, each individual incubation tube was washed with 2 ml of 0.2 mM Tween 20 in distilled water and poured onto the corresponding SPE column. This Tween 20/water wash was aspirated to near dryness with vacuum. Analytes were eluted into 12×76 mm disposable glass test tubes with 2×1 ml aliquots of methanol (HPLC grade, Fisher Scientific Co.). The sample collection rack for the Baker 10 SPE System was modified to accommodate these 12 mm diameter tubes. The SPE columns were aspirated dry at this point and discarded. An internal chromatographic standard of p-nitrobenzyl alcohol (25 microl of 8 mM stock solution in methanol) was added to each methanol eluent, mixed by vortexing, and then clarified by filtration through a 0.45 micron nylon Swinney type filter (Rainin Instrument Corp.). The filtered eluents were used directly for chromatographic analysis.
The Initial incubation conditions were 0.1 M potassium citrate buffer, pH 5.5, with 0.2 mM Tween 20, 200 microM reducing substrate, 60 nM HRP and […] PPHP (structure 1).
Quantitation was determined by adding an internal standard (p-nitrobenzyl alcohol: annotated as I.S. on chromatograms) and ratioing peak areas. Chromatograms are 40 microliters injections onto a 5 micron Zorbax octylsilyl reverse-phase column (DuPont Instrument Corp.) with an isocratic elution mobile of 56% v/v methanol in water at 2 ml per min. U.V. monitoring was with a fixed 254 nm detector (Varian 5000, Varian Instrument Corp.). Vertical numbers are associated with peak retention times in minutes (the integrator used was a Vista 402 System, Varian Instruments).
Analyte concentrations were calculated by an internal standard method of calculation. This required individual incubation chromatograms to be compared to a calibration chromatogram generated by chromatographing a 40 microliter sample aliquot of a solution of PPHP as described under calculations.

[2] = system: HRP isoenzymes; conditions: similar preparation of HRP isoenzymes, phenylperoxyacetic acid; cited from earlier work
[3] = Solubility of PPHP; assay type: physicochemical; conditions: aqueous buffers
[4] = system: cytochrome P-450; test: PPHP as peroxidase substrate; assay type: biochemical
Text: (§1) A practical method is described for the determination of peroxidase enzyme activity that monitors the ability of enzyme preparations to reduce PPHP in the presence of a reducing substrate. […] The alcohol product and hydroperoxide substrate are conveniently separated by HPLC and reliably quantitated by ultraviolet detection. These properties make PPHP an ideal substrate for the assay. […] Thus, the procedure is a general assay for peroxidase activity.

[5] = molecular target: lactoperoxidase (Bos taurus, UniProt P80025); test: PPHP as peroxidase substrate; assay type: biochemical
Text: as §1

[6] = molecular target: T2, glutathione peroxidase (Homo sapiens, UniProt P07203); test: PPHP as peroxidase substrate; assay type: biochemical
T2 sequence (P07203 1-203): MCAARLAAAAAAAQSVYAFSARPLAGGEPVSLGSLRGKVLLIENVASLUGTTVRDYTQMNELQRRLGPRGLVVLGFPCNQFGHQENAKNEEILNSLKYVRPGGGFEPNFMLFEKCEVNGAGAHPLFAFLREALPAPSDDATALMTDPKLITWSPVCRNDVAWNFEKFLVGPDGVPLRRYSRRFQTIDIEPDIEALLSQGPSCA
Text: as §1

[7] = molecular target: T3, catalase (Homo sapiens, UniProt P04040); test: PPHP as peroxidase substrate; assay type: biochemical
T3 sequence (P04040 2-527 limits assumed): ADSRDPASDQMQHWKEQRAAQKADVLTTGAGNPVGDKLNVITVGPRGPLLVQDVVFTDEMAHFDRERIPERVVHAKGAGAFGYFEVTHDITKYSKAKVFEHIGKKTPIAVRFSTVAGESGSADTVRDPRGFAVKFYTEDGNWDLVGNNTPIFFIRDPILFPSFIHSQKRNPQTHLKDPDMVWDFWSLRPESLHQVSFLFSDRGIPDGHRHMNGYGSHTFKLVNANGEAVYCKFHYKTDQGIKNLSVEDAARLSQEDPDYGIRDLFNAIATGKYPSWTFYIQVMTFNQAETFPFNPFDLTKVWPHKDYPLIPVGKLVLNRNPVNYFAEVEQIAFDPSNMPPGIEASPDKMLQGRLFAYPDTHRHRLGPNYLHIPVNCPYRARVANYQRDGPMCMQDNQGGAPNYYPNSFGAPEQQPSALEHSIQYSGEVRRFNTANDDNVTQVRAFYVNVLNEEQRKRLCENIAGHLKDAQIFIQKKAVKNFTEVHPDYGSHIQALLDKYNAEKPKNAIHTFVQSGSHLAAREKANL
Text: as §1

[8] = molecular target: T4, Prostaglandin H Synthase (Ovis aries, UniProt P05979); test: Reducing substrate efficiency for PPHP reduction, conditions as for Table 1; assay type: biochemical
T4 sequence (P05979 25-600): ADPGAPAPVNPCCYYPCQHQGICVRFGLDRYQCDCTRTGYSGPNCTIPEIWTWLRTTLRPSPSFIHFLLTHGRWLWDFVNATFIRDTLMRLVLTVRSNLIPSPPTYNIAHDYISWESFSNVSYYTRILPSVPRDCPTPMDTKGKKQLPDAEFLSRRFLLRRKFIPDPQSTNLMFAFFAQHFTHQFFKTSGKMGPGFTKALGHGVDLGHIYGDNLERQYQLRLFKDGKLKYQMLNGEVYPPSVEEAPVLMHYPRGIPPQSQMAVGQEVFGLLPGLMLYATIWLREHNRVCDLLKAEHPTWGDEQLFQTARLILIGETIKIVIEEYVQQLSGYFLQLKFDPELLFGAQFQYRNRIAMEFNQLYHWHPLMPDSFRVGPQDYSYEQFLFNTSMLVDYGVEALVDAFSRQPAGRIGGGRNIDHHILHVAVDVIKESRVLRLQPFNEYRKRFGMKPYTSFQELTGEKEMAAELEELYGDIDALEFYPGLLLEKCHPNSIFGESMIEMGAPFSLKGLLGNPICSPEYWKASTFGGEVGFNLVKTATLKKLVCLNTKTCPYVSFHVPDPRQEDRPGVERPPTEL

[9] = Stability of PPHP; assay type: physicochemical; conditions: protected from light and metals
[10] = molecular target: T5, HRP (Armoracia rusticana, UniProt P00433); test: Steady-state kinetic assay (PPA production, SPE/HPLC); assay type: biochemical, horseradish; conditions: HRP with phenol as reducing substrate
T5 construct: purchased Sigma Chemical Corporation Type VI
T5 sequence (P00433 31-338 limits assumed): T1 sequence (P00433 31-338 limits assumed)
Procedure: The incubations were terminated at 2, 4, and 8 minutes by pouring the incubations onto SPE columns as described in Methods. […] The data points are the average of triplicates. […] All buffers contained 0.2 mM Tween-20. Incubations were stopped at 4 minutes by pouring onto SPE columns as described in Methods. Each data point is the average of triplicates. […] Incubations were stopped at 4 minutes by pouring on SPE columns as described in Methods. PPA concentrations were converted into velocities by dividing by the incubation time and assuming linear steady-state velocities over the first 8 minutes (see FIG. 3). Five replicates of each phenol concentration were assayed. Km and Vmax were determined by linear regression analysis upon the non-averaged data points.
We designed the assays with 4 minute termination times converting either the concentration of PPHP or PPA into velocities.

[11] = molecular target: T6, HRP compound II (Armoracia rusticana, UniProt P00433); conditions: pH 8.11; read-out: Km for the reaction with HRP compound II; cited from earlier work
T6 sequence (P00433 31-353): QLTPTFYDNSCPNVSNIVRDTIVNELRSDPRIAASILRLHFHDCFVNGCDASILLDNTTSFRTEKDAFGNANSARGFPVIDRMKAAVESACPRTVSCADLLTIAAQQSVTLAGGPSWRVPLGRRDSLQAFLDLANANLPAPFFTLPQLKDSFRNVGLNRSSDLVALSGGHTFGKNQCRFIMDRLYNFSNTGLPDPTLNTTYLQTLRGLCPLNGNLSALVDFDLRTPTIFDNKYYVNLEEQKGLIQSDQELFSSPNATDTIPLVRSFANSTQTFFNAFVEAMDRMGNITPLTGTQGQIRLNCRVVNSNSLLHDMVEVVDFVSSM

[12] = 60 nM HRP, 200 microM reducing substrate

Oc1cccc(O)c1O [Pyrogallol, pyrogallol]
Index = concentration PPA/(concentration PPA+concentration PPHP) [1, 12]: 0.97 ± 0.01
turnover for pyrogallol oxidation [2]: 18500 min⁻¹

OOCCC/C=C/c1ccccc1 [PPHP, 1-hydroperoxy-5-Phenyl-4-pentene]
solubility [3]: soluble in aqueous buffers
suitability as peroxidase substrate [4]: excellent substrate
suitability as peroxidase substrate [5]: excellent substrate
suitability as peroxidase substrate [6]: excellent substrate
suitability as peroxidase substrate [7]: excellent substrate
suitability as peroxidase substrate ([1]; HRP): excellent substrate
suitability as peroxidase substrate ([8]; protaglandin H (PGH) synthase): excellent substrate
stability [9]: stable if protected from light and metals

Oc1ccccc1 [Phenol, phenol]
Index = concentration PPA/(concentration PPA+concentration PPHP) [1, 12]: 0.97 ± 0.01
reducing substrate quality for HRP (FIG. 1) ([1]; 200 microM reducing substrate, 60 nM HRP, pH 5.5): good
Index of Efficiency of Reducing Substrates ([8]; Prostaglandin H synthase, under the conditions for Table 1): .51
turnover number of PHP reduction [10]: 10500 min

Cc1ccc(O)cc1 [p-cresol]
Km [11]: ~180 µM

Reference: patent US4780281A, “Method for assay of peroxidase enzyme or reducing substrate activity” (Wayne State University, priority 1985, dated 1988)
